Assay results from US20250034196A1, “ESTER DERIVATIVES OF N4-HYDROXYCYTIDINE AND USE THEREOF” (priority 2021, published 2025).

Assays:
[1] = tested on: SARS-CoV-2 Omicron B.1.1.529 variant; conditions: Vero E6
[2] = tested on: SARS-CoV-2 Omicron B.1.1.529 variant; experiment: microbe, parasite or virus in culture; conditions: Severe acute respiratory syndrome coronavirus 2, Vero C1008, 96 h

CC(C)C(=O)OC[C@H]1O[C@@H](n2ccc(NO)nc2=O)[C@H](O)[C@@H]1O [Molnupiravir]
SI (CC50/EC50) [1]: >6.65 | EC50 [2]: 15.1 µM | EC90 [2]: 23.4 µM

CC(=O)ONc1ccn([C@@H]2O[C@H](CO)[C@@H](O)[C@H]2O)c(=O)n1 [EX-2]
SI (CC50/EC50) [1]: 11.38 | EC50 [2]: 1.6 µM | EC90 [2]: 2.48 µM
